Assays:
HiDapE = HiDapE (Haemophilus influenzae, UniProt P44514); assay: DapE inhibition, ninhydrin-based assay; format: biochemical; settings: for inhibition at 100 µM: 100 µM inhibitor, read-out: DapE % Inhib at 100 µM; for IC50: ninhydrin assay
Procedure: All compounds were screened for DapE inhibitory potency using a ninhydrin-based assay at 100 μM, and IC50 values were determined for molecules that inhibited DapE > 70% at 100 μM (Table 1). Some SAR trends emerge from the data.
Experimental IC50 curves for cyclobutanone inhibitors against DapE were identified as sigmoidal shaped response curves, as opposed to simple hyperbolic plots. […] IC50 curves with the corresponding Hill coefficients are reported in the Supplementary Materials as Figures S74−S81. Experimental Hill coefficients may provide information on the number of binding sites of a biological target (receptors and enzymes) interacting with ligands.
The inhibition of HiDapE by potential inhibitors was assessed using the previously developed ninhydrin assay with slight modifications. It was performed in a PCR Thermal Cycler System. All experiments were performed in triplicate in 50 mM HEPES buffer at pH 7.5. Reaction volumes were 100 µL of 2 mM N^6-Methyl-L,L-SDAP and 8 nM HiDapE. Ninhydrin was purchased as a 2% solution in 100% DMSO/lithium acetate buffer at pH 5.2. The inhibitor, followed by HiDapE, was added to a 50 mM HEPES (pH 7.5) buffered solution at 30 °C, and the mixture was incubated at 30 °C for 10 min. N^6-Methyl-L,L-SDAP was added, and the reaction mixture was incubated at 30 °C for 10 min, then heated to 99 °C for 1 min, and further cooled to 0 °C for 1 min. The 2% ninhydrin solution (50 µL) was added, and the mixture was thoroughly mixed. The reaction mixture was heated to 80 °C for 15 min, then cooled to 0 °C for 1 min. The absorbance of an 80 μL aliquot was recorded at 570 nm on a BioTek Synergy 2 microplate reader. All the inhibition assays of HiDapE were performed in triplicate and the IC50 values were obtained by fitting the data following the modified Hill equation: V = V0 + (Vmax − V0) XnH/(XnH0.5 + XnH) using the graphing suite Origin 9.1 with the Levenberg–Marquardt non-linear least-squares algorithm. The velocity in the absence of the substrate is […]; the velocity at saturating concentrations of the substrate or with no inhibitor for the inhibition assay is Vmax; X is the concentration of the substrate or inhibitor; and X0.5 is the substrate (S0.5) and inhibitor (I0.5) concentration at 50% maximum velocity and at 50% inhibition, respectively. The Hill coefficient is represented as nH.

Sequence of HiDapE (P44514 whole entry): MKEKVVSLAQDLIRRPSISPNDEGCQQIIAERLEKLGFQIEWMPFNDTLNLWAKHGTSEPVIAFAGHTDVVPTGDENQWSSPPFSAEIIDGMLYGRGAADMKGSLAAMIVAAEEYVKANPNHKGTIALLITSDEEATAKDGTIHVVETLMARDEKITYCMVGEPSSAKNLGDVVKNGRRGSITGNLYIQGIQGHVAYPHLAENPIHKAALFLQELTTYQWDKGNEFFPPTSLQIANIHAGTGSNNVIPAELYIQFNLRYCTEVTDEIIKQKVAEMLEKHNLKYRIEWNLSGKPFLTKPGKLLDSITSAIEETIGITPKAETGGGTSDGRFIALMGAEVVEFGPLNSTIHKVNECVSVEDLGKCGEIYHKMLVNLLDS

CC(C)[C@@H](NS(=O)(=O)c1ccc(C#N)cc1)C(=O)NC1CCC1=O (mixture of isomers) [3aa, (2R)-2-((4-Cyanophenyl)sulfonamido)-3-methyl-N-(2-oxocyclobutyl)butanamide]
inhibition at 100 µM (HiDapE): 5.6% | melting point: 150 to 151 °C

COC(=O)c1ccc(S(=O)(=O)N[C@@H](C(=O)NC2CCC2=O)C(C)C)cc1 (mixture of isomers) [3ab, Methyl 4-(N-((2R)-3-methyl-1-oxo-1-((2-oxocyclobutyl)amino)butan-2-yl)sulfamoyl)benzoate]
inhibition at 100 µM (HiDapE): 10.7% | melting point: 190 to 191 °C

CC(C)[C@@H](NS(=O)(=O)c1ccc(O)cc1)C(=O)NC1CCC1=O (mixture of isomers) [3ac, (2R)-2-((4-hydroxyphenyl)sulfonamido)-3-methyl-N-(2-oxocyclobutyl)butanamide]
inhibition at 100 µM (HiDapE): 44.4% | melting point: 139 to 141 °C

O=C(N[C@@H](Cc1ccccc1)C(=O)NC1CCC1=O)OCc1ccccc1 (mixture of isomers) [3ad, Benzyl ((2S)-1-oxo-1-((2-oxocyclobutyl)amino)-3-phenylpropan-2-yl)carbamate]
inhibition at 100 µM (HiDapE): 96.2% | IC50 (HiDapE): 69.8 ± 1.4 µM

O=C(N[C@H](Cc1ccccc1)C(=O)NC1CCC1=O)OCc1ccccc1 (mixture of isomers) [3ae, Benzyl ((2R)-1-oxo-1-((2-oxocyclobutyl)amino)-3-phenylpropan-2-yl)carbamate]
inhibition at 100 µM (HiDapE): 97.9% | IC50 (HiDapE): 55.4 ± 5.5 µM

O=C(N[C@@H](Cc1ccc(O)cc1)C(=O)NC1CCC1=O)OCc1ccccc1 (mixture of isomers) [3af, Benzyl ((2S)-3-(4-hydroxyphenyl)-1-oxo-1-((2-oxocyclobutyl)amino)propan-2-yl)carbamate]
inhibition at 100 µM (HiDapE): 15.5%

CC(C)[C@H](NC(=O)OCc1ccccc1)C(=O)NC1CCC1=O (mixture of isomers) [3ag, Benzyl ((2S)-3-methyl-1-oxo-1-((2-oxocyclobutyl)amino)butan-2-yl)carbamate]
inhibition at 100 µM (HiDapE): 53.9%

Cc1ccc(S(=O)(=O)N[C@@H](Cc2ccccc2)C(=O)NC2CCC2=O)cc1 (mixture of isomers) [3v, (2S)-2-((4-Methylphenyl)sulfonamido)-N-(2-oxocyclobutyl)-3-phenylpropanamide]
inhibition at 100 µM (HiDapE): 92.8% | IC50 (HiDapE): 45.7 ± 1.5 µM

Cc1ccc(S(=O)(=O)N[C@H](Cc2ccccc2)C(=O)NC2CCC2=O)cc1 (mixture of isomers) [3w, (2R)-2-((4-Methylphenyl)sulfonamido)-N-(2-oxocyclobutyl)-3-phenylpropanamide]
inhibition at 100 µM (HiDapE): 55% | IC50 (HiDapE): > 50 µM

Cc1ccc(S(=O)(=O)N[C@@H](Cc2c[nH]c3ccccc23)C(=O)NC2CCC2=O)cc1 (mixture of isomers) [3x, (2S)-3-(1H-Indol-3-yl)-2-((4-methylphenyl)sulfonamido)-N-(2-oxocyclobutyl)propanamide]
inhibition at 100 µM (HiDapE): 19.6%

COc1ccc(S(=O)(=O)N[C@H](C(=O)NC2CCC2=O)C(C)C)cc1 (mixture of isomers) [3z, (2S)-2-((4-Methoxyphenyl)sulfonamido)-3-methyl-N-(2-oxocyclobutyl)butanamide]
inhibition at 100 µM (HiDapE): 30.7% | melting point: 179 to 181 °C

Cc1ccccc1C(=O)NC1CCC1=O (stereo not drawn) [3a, 2-Methyl-N-(2-oxocyclobutyl)benzamide]
inhibition at 100 µM (HiDapE): 16.8% | melting point: 100 to 102 °C

O=C1CCC1NS(=O)(=O)c1ccc(C(F)(F)F)cc1 (stereo not drawn) [3ah, N-(2-Oxocyclobutyl)-4-(trifluoromethyl)benzenesulfonamide]
inhibition at 100 µM (HiDapE): 22.6% | melting point: 74 to 76 °C

O=C1CCC1NS(=O)(=O)c1ccc(F)cc1 (stereo not drawn) [3ai, N-(2-Oxocyclobutyl)-4-(fluoro)benzenesulfonamide]
inhibition at 100 µM (HiDapE): 72.9% | IC50 (HiDapE): 53.3 ± 5.4 µM

Cc1cccc(C(=O)NC2CCC2=O)c1 (stereo not drawn) [3b, 3-Methyl-N-(2-oxocyclobutyl)benzamide]
inhibition at 100 µM (HiDapE): 37.8% | melting point: 94 to 96 °C

Cc1ccc(C(=O)NC2CCC2=O)cc1 (stereo not drawn) [3c, 4-Methyl-N-(2-oxocyclobutyl)benzamide]
inhibition at 100 µM (HiDapE): 58.1% | melting point: 149 to 150 °C

O=C(NC1CCC1=O)c1ccccc1Cl (stereo not drawn) [3d, 2-Chloro-N-(2-oxocyclobutyl)benzamide]
inhibition at 100 µM (HiDapE): 33.6% | melting point: 102 to 103 °C

O=C(NC1CCC1=O)c1cccc(Cl)c1 (stereo not drawn) [3e, 3-Chloro-N-(2-oxocyclobutyl)benzamide]
inhibition at 100 µM (HiDapE): 45.8% | melting point: 64 to 66 °C

O=C(NC1CCC1=O)c1ccc(Br)cc1 (stereo not drawn) [3f, 4-Bromo-N-(2-oxocyclobutyl)benzamide]
inhibition at 100 µM (HiDapE): 25.2% | melting point: 104 to 105 °C

COc1ccc(C(=O)NC2CCC2=O)cc1Cl (stereo not drawn) [3g, 3-Chloro-4-methoxy-N-(2-oxocyclobutyl)benzamide]
inhibition at 100 µM (HiDapE): 29.1% | melting point: 134 to 136 °C

COc1cc(Cl)c(C(=O)NC2CCC2=O)cc1OC (stereo not drawn) [3h, 2-Chloro-4,5-dimethoxy-N-(2-oxocyclobutyl)benzamide]
inhibition at 100 µM (HiDapE): 24.4% | melting point: 123 to 125 °C

O=C(NC1CCC1=O)c1ccccc1O (stereo not drawn) [3i, 2-Hydroxy-N-(2-oxocyclobutyl)benzamide]
inhibition at 100 µM (HiDapE): 28.9% | melting point: 149 to 151 °C

COc1ccc(C(=O)NC2CCC2=O)c(O)c1 (stereo not drawn) [3j, 2-Hydroxy-4-methoxy-N-(2-oxocyclobutyl)benzamide]
inhibition at 100 µM (HiDapE): 73% | IC50 (HiDapE): 66.4 ± 2.9 µM | melting point: 131 to 133 °C

COc1cc(C(=O)NC2CCC2=O)cc(OC)c1OC (stereo not drawn) [3k, 3,4,5-Trimethoxy-N-(2-oxocyclobutyl)benzamide]
inhibition at 100 µM (HiDapE): 93.7% | IC50 (HiDapE): 39.6 ± 2.9 µM | melting point: 144 to 146 °C

O=C(NC1CCC1=O)c1ccccn1 (stereo not drawn) [3l, N-(2-Oxocyclobutyl)picolinamide]
inhibition at 100 µM (HiDapE): 25.6% | melting point: 97 to 99 °C

O=C(NC1CCC1=O)c1cccnc1 (stereo not drawn) [3m, N-(2-Oxocyclobutyl)nicotinamide]
inhibition at 100 µM (HiDapE): 24.9%

O=C(NC1CCC1=O)c1cccnc1Cl (stereo not drawn) [3n, 2-Chloro-N-(2-oxocyclobutyl)nicotinamide]
inhibition at 100 µM (HiDapE): < 5% | melting point: 80 to 82 °C

O=C(NC1CCC1=O)c1cncc(Br)c1 (stereo not drawn) [3o, 5-Bromo-N-(2-oxocyclobutyl)nicotinamide]
inhibition at 100 µM (HiDapE): 34.6% | melting point: 114 to 115 °C

O=C(NC1CCC1=O)c1ccncc1 (stereo not drawn) [3p, N-(2-Oxocyclobutyl)isonicotinamide]
inhibition at 100 µM (HiDapE): < 5% | melting point: 119 to 121 °C

O=C(NC1CCC1=O)c1cnc2ccccc2c1 (stereo not drawn) [3q, N-(2-Oxocyclobutyl)quinoline-3-carboxamide]
inhibition at 100 µM (HiDapE): 48% | melting point: 155 to 156 °C

O=C(NC1CCC1=O)c1cccc2cccnc12 (stereo not drawn) [3r, N-(2-Oxocyclobutyl)quinoline-8-carboxamide]
inhibition at 100 µM (HiDapE): < 5% | melting point: 89 to 91 °C

COc1cccc(CC(=O)NC2CCC2=O)c1 (stereo not drawn) [3s, 2-(3-Methoxyphenyl)-N-(2-oxocyclobutyl)acetamide]
inhibition at 100 µM (HiDapE): 27% | melting point: 104 to 105 °C

O=C(Cc1ccc(Br)cc1)NC1CCC1=O (stereo not drawn) [3t, 2-(4-Bromophenyl)-N-(2-oxocyclobutyl)acetamide]
inhibition at 100 µM (HiDapE): 59% | melting point: 124 to 127 °C

O=C(CCc1nc2ccccc2[nH]1)NC1CCC1=O (stereo not drawn) [3u]
inhibition at 100 µM (HiDapE): 84.7% | IC50 (HiDapE): 52.4 ± 7.4 µM | melting point: 179 to 181 °C

Cc1ccc(S(=O)(=O)N[C@@H](Cc2ccccc2)C(=O)NCC2(O)CC2)cc1 [4a, (S)-N-((1-hydroxycyclopropyl)methyl)-2-((4-methylphenyl)sulfonamido)-3-phenylpropanamide]
inhibition at 100 µM (HiDapE): 36.4%

Cc1ccc(S(=O)(=O)N[C@@H](Cc2ccccc2)C(=O)NCC(C)(C)O)cc1 [4b, (S)-N-(2-hydroxy-2-methylpropyl)-2-((4-methylphenyl)sulfonamido)-3-phenylpropanamide]
inhibition at 100 µM (HiDapE): 19.1%

Reference: publication PMC10815964, “Cyclobutanone Inhibitors of Diaminopimelate Desuccinylase (DapE) as Potential New Antibiotics” (International Journal of Molecular Sciences, 2024)
